We go through one substance from patent US9919029B2, “Methods and pharmaceutical compositions for the treatment of bacterial infections” (INSERM (INSTITUT NATIONAL DE LA SANTE ET DE LA RECHERCHE …, priority 2013, dated 2018).

The assay has as its system Streptococcus pneumoniae. As to the kind of experiment: Streptococcus pneumoniae respiratory infection in mice. The format is in vivo, BALB/c mice. To be noted: severe/advanced infection; nasal flagellin plus antibiotic (oral amoxicillin or intraperitoneal bactrim). The procedure:
Animals were infected with a lethal dose of Streptococcus pneumoniae (1-5×10^6 CFU of serotypel, clinical isolate E1586) and treated at 40 h and 48 h as depicted in the upper panel. Seventeen hours later (T=65 h), bacterial counts were defined by plating tissue homogenates. The Left side: bacterial counts per lung. Right side: bacterial counts per spleen.
Animals were infected with a lethal dose of Streptococcus pneumoniae (1-5×10^6 CFU of serotypel, clinical isolate E1586) and treated at 30 h as depicted in the upper panel. Sixteen hours later (T=46 h), bacterial counts were defined by plating tissue homogenates. The Left side: bacterial counts per lung. Right side: bacterial counts per spleen.
Animals were infected with a lethal dose of Streptococcus pneumoniae (1-5×10^6 CFU of serotypel, clinical isolate E1586) and treated from 12 h to 84 h as depicted in the upper panel. Survival of animals was then analyzed during 5 days.
FIG. 6. […] (A) S. pneumoniae-infected (2×10^6 CFU) BALB/c mice were treated intraperitoneally with 4.8 mg bactrim, i.e. co-trimoxazole (TMP-SMX) and intranasally with 2.5 μg flagellin FliCΔ174-400 and analyzed as indicated. (B) Survival was monitored every 12 h for 9 days. (C, D) Bacterial counts in lung (C) and spleen (D) was determined by measuring CFU per tissue. […] (E) The body weight of infected animals was measured and expressed relative to the initial weight. […]

As for flagellin, the “reduction of number of bacteria compared to the antibiotic therapy alone” value is 10-to-50 fold.
